Assay type in all cases: functional
Assay [1] has as its system Helicoverpa armigera. In words: Insecticidal activity against L1 larvae of Helicoverpa armigera assessed as mortality after 48 hr by leaf disk assay.
The subject of assay [2] is Helicoverpa armigera. The experiment in a line: Insecticidal activity against L3 larvae of Helicoverpa armigera assessed as mortality after 48 hr by leaf disk assay.
Assay [3] deals with Helicoverpa armigera. The experiment in a line: Insecticidal activity against L2 larvae of Helicoverpa armigera assessed as mortality after 48 hr by leaf disk assay.
The next assay has as its system Earias. The experiment in a line: Insecticidal activity against L3 to L4 larvae of Earias spp. assessed as mortality after 48 hr by leaf disk assay.
In assay [4] the test system is Helicoverpa armigera. In words: Insecticidal activity against L4 larvae of Helicoverpa armigera assessed as mortality after 48 hr by leaf disk assay.
In assay [5] the test system is Helicoverpa armigera. The experiment in a line: Insecticidal activity against Helicoverpa armigera assessed as time above which insecticide kills less than 50% of larvae by measuring index of persistence under in absence of rain.
Another assay relates to Diparopsis watersi. In words: Insecticidal activity against L3 to L4 larvae of Diparopsis watersi assessed as mortality after 48 hr by leaf disc assay.
Assay [6] relates to Helicoverpa armigera. In words: Insecticidal activity against L5 larvae of Helicoverpa armigera assessed as mortality after 48 hr by leaf disk assay.
Assay [7] deals with Helicoverpa armigera. The experiment in a line: Insecticidal activity against Helicoverpa armigera assessed as time above which insecticide kills less than 50% of larvae by measuring index of persistence in presence of 24 mm of simulated rain applied at three days interval.

The mortality is the share of the test organisms that died. With `O=S1OCC2C(CO1)C1(Cl)C(Cl)=C(Cl)C2(Cl)C1(Cl)Cl` (configuration not stated) [ENDOSULFAN], the mortality with Helicoverpa armigera [1] was 93.3%; in the assay with Helicoverpa armigera [2], 94.1%; in the assay with Helicoverpa armigera [3] it was 91.5%; in the assay with Earias, 99.4%; with Helicoverpa armigera [4] it was 89.5%; in the assay with Diparopsis watersi, 82.8%. Besides, in the assay with Helicoverpa armigera [6], the mortality is reported as 92.5%. Further, the Time was 8.7 days with Helicoverpa armigera [5] and 5.2 days in the assay on Helicoverpa armigera [7].
`COC(=O)N(C(=O)N1CO[C@@]2(C(=O)OC)Cc3cc(Cl)ccc3C2=N1)c1ccc(OC(F)(F)F)cc1` [INDOXACARB]: the mortality in the assay on Helicoverpa armigera [1] was determined as 86.2%; with Helicoverpa armigera [2], 89.3%; with Helicoverpa armigera [3], 78.9%; in the assay with Earias it was 90.8%; in the assay on Helicoverpa armigera [4], 90.9%; in the assay on Diparopsis watersi, 77.7%. Further, the mortality with Helicoverpa armigera [6] is 94.5%. Moreover, the Time in the assay on Helicoverpa armigera [5] is 8.4 days; in the assay on Helicoverpa armigera [7] it was 3.7 days.
Regarding `CS/C(C)=N\OC(=O)N(C)SN(C)C(=O)O/N=C(\C)SC` [THIODICARB], the mortality in the assay with Helicoverpa armigera [1] was found to be 98.6%; in the assay with Helicoverpa armigera [2], 94.1%; in the assay on Helicoverpa armigera [3] it was 99.2%; in the assay on Earias it was 100%; in the assay with Helicoverpa armigera [4], 97.5%; in the assay with Diparopsis watersi it was 99.3%. For the same molecule, in the assay on Helicoverpa armigera [6], the mortality is given as 96.5%. Besides, the Time with Helicoverpa armigera [5] is 27 days; in the assay on Helicoverpa armigera [7], 17.2 days.

These data come from ChEMBL document CHEMBL3046741, “Initial activity and persistence of insecticides for the control of bollworms (Lepidoptera: Noctuidae) in cotton crops” (2009).
